What was measured:
Assay type in all cases: physicochemical
[1] = Decomposition rate of carboplatin in aqueous solution in dependence on the concentration of 1,1-cyclobutanedicarboxylic acid; settings: 0.1 M phosphate buffer at 37° C. versus 1.4·10^−4M CBDCA-buffer at 40° C.
[2] = as above; settings: for decomposition rate of carboplatin (r): carboplatin 10.0 mg·ml^−1
Description: The rate of hydrolysis of carboplatin to a monoaquacomplex of the formula (1) has been presumed to be of the first order in relation to carboplatin concentration and independent to water concentration: [formula]
Dependences on concentration according to equations /1-2/ and /1-3/ were evaluated by linear regression and the rate constant and/or the reaction rate of the carboplatin decomposition have been calculated.
Study of the decomposition rate of carboplatin in dependence on the concentration of 1,1-cyclobutanedicarboxylic acid.
Mean starting concentration of carboplatin was 10.0 mg·ml^−1. Starting concentrations of 1,1-cyclobutanedicarboxylic acid were 0.017, 0.129, 1.189 and 14.804 mg·ml^−1. The temperature and relative humidity during storage was 25° C./60% and 35° C./60%. The vials with samples were stored stopper upright.
The decrease of carboplatin content was calculated as a difference of carboplatin content between a reference and measured sample. The concentration data were evaluated according to equation /1-2/, whereby, due to a good linear relation, the data were evaluated by linear regression.

[3] = Decomposition rates of carboplatin calculated from equation /1-7/ (Arrhenius evaluation); settings: for calculated decomposition rate of carboplatin (r) / rate increase: 25° C.; for calculated decomposition rate of carboplatin (r): from equation /1-7/
Description: After evaluation of Arrhenius equation, the activation energy EA was calculated:
For the reference temperature of 35° C., at which the best determination coefficient has been obtained (R^2=0.99), the following dependence of the decomposition rate of carboplatin on the concentration of the present 1,1-cyclobutanedicarboxylic acid and on the temperature may be obtained from the equations /1-5/ and /1-6/: [formula]
wherein r is expressed in mol·m^−3·s^−1 and CCBDCA is expressed in mol·m^−3.
Based on the equation /1-7/, it is possible to calculate decomposition rates of carboplatin at the temperature of 25° C. and for different concentrations of 1,1-cyclobutanedicarboxylic acid: […]

For N.N.O=C([O-])C1(C(=O)[O-])CCC1.[Pt+2] [carboplatin, cis-diammin-1,1-cyclobutanedicarboxylatoplatinum(II) complex], the “rate constant k, ratio” value [1] was “approximately 200 times”, the “increase of the decomposition rate of carboplatin” value ([2]; enhancement of temperature of 10° C.) was “approximately tenfold” and the “decomposition rate of carboplatin (r)” value ([2]; storage 25° C./60% RH, CBDCA 0.017 mg·ml^−1) was 4.0 · 10^−9 mol·m^−3·s^−1. The “decomposition rate of carboplatin (r)” value ([2]; storage 25° C./60% RH, CBDCA 0.129 mg·ml^−1) was 4.0 · 10^−9 mol·m^−3·s^−1, the “decomposition rate of carboplatin (r)” value ([2]; storage 25° C./60% RH, CBDCA 1.189 mg·ml^−1) was 9.4 · 10^−9 mol·m^−3·s^−1 and the “decomposition rate of carboplatin (r)” value ([2]; storage 25° C./60% RH, CBDCA 14.804 mg·ml^−1) was 2.2 · 10^−8 mol·m^−3·s^−1. The “decomposition rate of carboplatin (r)” value ([2]; storage 35° C./60% RH, CBDCA 0.017 mg·ml^−1) was 4.9 · 10^−8 mol·m^−3·s^−1, the “decomposition rate of carboplatin (r)” value ([2]; storage 35° C./60% RH, CBDCA 0.129 mg·ml^−1) was 5.1 · 10^−8 mol·m^−3·s^−1 and the “decomposition rate of carboplatin (r)” value ([2]; storage 35° C./60% RH, CBDCA 1.189 mg·ml^−1) was 7.3 · 10^−8 mol·m^−3·s^−1. For the same compound, the “decomposition rate of carboplatin (r)” value ([2]; storage 35° C./60% RH, CBDCA 14.804 mg·ml^−1) was 1.7 · 10^−7 mol·m^−3·s^−1, the “calculated decomposition rate of carboplatin (r)” value (from here on “calculated decomposition rate”) ([3]; CBDCA 0.005 mg/ml) was 4.48·10^−9 mol·m^−3·s^−1 and the “calculated decomposition rate” value ([3]; CBDCA 0.150 mg/ml (as in Ribocarbol L)) was 4.58·10^−9 mol·m^−3·s^−1. The rate increase ([3]; CBDCA 0.150 mg/ml versus 0.005 mg/ml) was 2.2%, the “calculated decomposition rate” value ([3]; CBDCA 0.250 mg/ml (lower limit of EP 642 792)) was 4.65·10^−9 mol·m^−3·s^−1 and the rate increase ([3]; CBDCA 0.250 mg/ml versus 0.005 mg/ml) was 4%. The “activation energy EA of carboplatin decomposition” value ([3]; Arrhenius equation, from rates at 25 and 35° C.) was 190 000 J·mol^−1.
